Source: patent US8945540B2, “Compositions for enhancing the antibacterial activity of myeloperoxidase and methods of use thereof” (Exoxemis, Inc., priority 2008, dated 2015)
Where two headings read alike, the source gives them in different places.

Experiments:
Staphylococcus aureus [1] = assay: Control: microbicidal activity of the amino acid or analogue alone (no glucose, MPO, glucose oxidase) in the presence of blood; type: cell-based; details: for log reduction at 5000 µM: Staphylococcus aureus, 1 h, read-out: Log Reduction 60 min
Source text: As a control to determine the microbicidal activity of the amino acids alone, the foregoing procedure was followed without replication, except in the absence of glucose, MPO, and glucose oxidase.

Staphylococcus aureus [2] = assay: Microbicidal activity of the myeloperoxidase system (p-MPO, glucose oxidase, glucose) with amino acids in the presence of blood, CFU plate counts; synergy determination from these CFU; type: cell-based; details: for Average Viability CFU/ml 60 min / Log Reduction 60 min / Log 10 (CFU + 1) Survivors 60 min: MPO 38 U/ml, GO 33.3 U/ml; for Average Viability CFU/ml 50 min / Log Reduction 50 min: MPO 4.7 U/ml, GO 4.2 U/ml
Method: Bacterial suspensions, specifically Staphylococcus aureus in this example, were prepared by the shake flask method to achieve late log to early stationary phase growth. Bacteria were grown 24 hours in trypticase soy broth (TSB) at 35° C. The cultures were centrifuged at 4,000 rpm for 10 minutes and the supernatants removed. The pellet was collected and washed twice with sterile 0.9% normal saline (NS). The washed microorganisms were suspended and diluted with normal saline to a 3 McFarland standard, i.e., approximately 10^9 bacteria colony forming units (CFU) per mL. Actual colony counts are confirmed by serial dilutions (10^−1 to 10^−5 or 10^−6) plated on TSA and incubated overnight at 35° C. To obtain an approximate final working target inoculum of 10^7 CFU/mL, 15 microliters of organisms per mL of final reaction mixture are used.
Glucose oxidase (GO) from Aspergillus Niger was purchased from Biozyme, Inc., UK, Cat #GO3A, 270 U/mg). Porcine Myeloperoxidase (p-MPO) (Exoxemis, Inc., Little Rock, Ark. U.S.A., 375 U/mg). Sterile stock solutions of D-glucose and sodium chloride were prepared and used at a final concentration of 150 mM each. L-Lysine hydrochloride (Spectrum Chemical Cat #L1142) was prepared as a 100 mM stock solution. Catalase (Sigma, Cat #C-40) was prepared as a 1% stock solution in sterile 0.9% normal saline. Blood was collected by venipuncture and used as whole blood within the same day.
Staphylococcus aureus were used to give a final target concentration of 2-3×10^7 CFU (7.4 log 10) per mL and venous whole blood was used to give a final concentration of 3%. Glucose was added to the reaction mixtures to a final concentration of 150 mM, which initiated the microbicidal reaction. The final volume of the reaction mixtures was 1 mL. The reactions were allowed to run from 30 minutes to 2 hours, as needed, at room temperature or at 37° C. in a dry bath. At the specified time points the reaction mixtures were treated with 100 microliters of a catalase solution, containing a minimum of 100 units/μL, to consume remaining peroxide and terminate the oxidative killing. Serial dilution plate counts were performed from the contents of each vial in sterile saline and inoculated onto trypticase soy agar (TSA) for quantitative culture. Plates were then incubated at 37° C. and counts taken at 24 hours. […] The results are shown in Table 1, as the average of 2 replicates.
The amino acids alone, in the absence of MPO were tested to rule out their microbicidal activity. The results are shown in Table 2 to Table 6, as the average of 2 replicates.
The amino acid analogues alone, in the absence of MPO, were tested to rule out their microbicidal activity. […]
The effect of two-way combinations of individual amino acids with L-isoleucine, as potential enhancing agents, for MPO microbicidal action in the presence of blood, was therefore examined by following the procedure of Example 5.
The Actual CFU observed for the pair is then divided by the Predicted CFU and multiplied by 100 to calculate the % of Predicted value. This value is then to be compared to the threshold value, discussed in the next section, to determine whether the pair are synergistic, antagonistic, or additive.
Calculation of appropriate threshold values for determination of synergism and antagonism was based upon the variability of replicated CFU survivor measures.

[3] = amino acid alone 5 mM, MPO 0, GO 0, no glucose, blood, without replication
[4] = MPO 100 μg/mL, AA 20 mM, 30 min
[5] = MPO 100 μg/mL, AA 20 mM, 60 min
[6] = Table 5, amino acid 5 mM (none: 0 mM), blood
[7] = Table 11, single amino acid 2.5 mM, in the presence of blood, 50 min
[8] = Table 3, amino acid 5 mM (none: 0 mM), blood
[9] = Table 4, amino acid 5 mM (none: 0 mM), blood
[10] = Table 10, single amino acid 2.5 mM, in the presence of blood, 50 min
[11] = Table 19, amino acid (racemic, L- or D-form) 2.5 mM, 50 min
[12] = single amino acid 2.5 mM, blood
[13] = amino acid analogue alone 5 mM, MPO 0, GO 0, no glucose, blood
[14] = Table 7, amino acid analogue 5 mM, blood
[15] = Table 2, amino acid 5 mM (none: 0 mM), blood
[16] = Table 13, single amino acid 2.5 mM, in the presence of blood, 50 min

| SMILES | log reduction at 5000 µM (Staphylococcus aureus [1]; [3]) | Average Viability CFU/ml 60 min (Staphylococcus aureus [1]; [3]) | Log 10 (CFU + 1) Survivors (Staphylococcus aureus [2]; MPO 25 μg/mL, AA 5 mM, 30 min) | Log 10 (CFU + 1) Survivors (Staphylococcus aureus [2]; MPO 25 μg/mL, AA 5 mM, 60 min) | Log 10 (CFU + 1) Survivors (Staphylococcus aureus [2]; MPO 25 μg/mL, AA […], 30 min) | Log 10 (CFU + 1) Survivors (Staphylococcus aureus [2]; MPO 25 μg/mL, AA […], 60 min) | Log 10 (CFU + 1) Survivors (Staphylococcus aureus [2]; MPO 100 μg/mL, AA 5 mM, 30 min) | Log 10 (CFU + 1) Survivors (Staphylococcus aureus [2]; MPO 100 μg/mL, AA 5 mM, 60 min) | Log 10 (CFU + 1) Survivors (Staphylococcus aureus [2]; [4]) | Log 10 (CFU + 1) Survivors (Staphylococcus aureus [2]; [5]) | further results |
| --- | --- | --- | --- | --- | --- | --- | --- | --- | --- | --- | --- |
| N[C@H](CO)C(=O)O [D-Serine] | 0 | 23100000 CFU/ml | 6.8 | 6.5 | 6.7 | 6.0 | 6.0 | 0.0 | 6.0 | 3.9 | Average Viability CFU/ml 60 min (Staphylococcus aureus [2]; [6]): 0 CFU/ml; Log Reduction 60 min (Staphylococcus aureus [2]; [6]): 7.4; Average Viability CFU/ml 50 min (Staphylococcus aureus [2]; [7]): 945000 CFU/ml; Log Reduction 50 min (Staphylococcus aureus [2]; [7]): 1.5 |
| C[C@H](O)[C@@H](N)C(=O)O [D-Threonine] | 0 | 20700000 CFU/ml | 7.3 | 6.8 | 7.3 | 6.7 | 7.1 | 5.1 | 7.4 | 5.0 | Average Viability CFU/ml 60 min (Staphylococcus aureus [2]; [8]): 815000 CFU/ml; Log 10 (CFU + 1) Survivors 60 min (Staphylococcus aureus [2]; [8]): 5.9; Log Reduction 60 min (Staphylococcus aureus [2]; [8]): 1.4; Average Viability CFU/ml 50 min (Staphylococcus aureus [2]; [7]): 2020000 CFU/ml; Log Reduction 50 min (Staphylococcus aureus [2]; [7]): 1.1 |
| N[C@H](Cc1c[nH]c2ccccc12)C(=O)O [D-Tryptophan] | – | 22600000 CFU/ml | – | – | – | – | – | – | – | – | log reduction at 5000 µM (Staphylococcus aureus [1]): 0.1; Average Viability CFU/ml 60 min (Staphylococcus aureus [2]; [9]): 19700000 CFU/ml; Log Reduction 60 min (Staphylococcus aureus [2]; [9]): 0.1 |
| N[C@H](Cc1ccc(O)cc1)C(=O)O [D-Tyrosine] | 0 | 23200000 CFU/ml | 6.8 | 5.9 | 6.7 | 7.0 | 6.7 | 5.0 | 5.8 | 0.0 | Average Viability CFU/ml 60 min (Staphylococcus aureus [2]; [6]): 9400 CFU/ml; Log Reduction 60 min (Staphylococcus aureus [2]; [6]): 3.4; Average Viability CFU/ml 50 min (Staphylococcus aureus [2]; [10]): 1320000 CFU/ml; Log Reduction 50 min (Staphylococcus aureus [2]; [10]): 1.3 |
| CC(C)[C@@H](N)C(=O)O [D-Valine] | 0.1 | 20900000 CFU/ml | 4.1 | 0.0 | 6.7 | 0.0 | 0.0 | 0.0 | 0.0 | 0.0 | Average Viability CFU/ml 60 min (Staphylococcus aureus [2]; [6]): 0 CFU/ml; Log Reduction 60 min (Staphylococcus aureus [2]; [6]): 7.4; Average Viability CFU/ml 50 min (Staphylococcus aureus [2]; [10]): 630000 CFU/ml; Log Reduction 50 min (Staphylococcus aureus [2]; [10]): 1.6; Average Viability CFU/ml 50 min (Staphylococcus aureus [2]; [11]): 630000 CFU/ml; Log Reduction 50 min (Staphylococcus aureus [2]; [11]): 1.6; Average Viability CFU/ml 50 min (Staphylococcus aureus [2]; [12]): 630000 CFU/ml; Log Reduction 50 min (Staphylococcus aureus [2]; [12]): 1.6 |
| CCOC(=O)C(C)N (stereo not drawn) [Ethyl 2-aminopropanoate] | – | – | – | – | – | – | – | – | – | – | log reduction at 5000 µM (Staphylococcus aureus [1]; [13]): 0; Average Viability CFU/ml 60 min (Staphylococcus aureus [1]; [13]): 23200000 CFU/ml; Average Viability CFU/ml 60 min (Staphylococcus aureus [2]; [14]): 0 CFU/ml; Log Reduction 60 min (Staphylococcus aureus [2]; [14]): 7.4 |
| CCOC(=O)CC(C)N (stereo not drawn) [Ethyl 3-aminobutyrate] | – | – | – | – | – | – | – | – | – | – | log reduction at 5000 µM (Staphylococcus aureus [1]; [13]): 0; Average Viability CFU/ml 60 min (Staphylococcus aureus [1]; [13]): 20900000 CFU/ml; Average Viability CFU/ml 60 min (Staphylococcus aureus [2]; [14]): 0 CFU/ml; Log Reduction 60 min (Staphylococcus aureus [2]; [14]): 7.4 |
| COC(=O)CN.Cl [Glycine methyl ester hydrochloride] | – | – | – | – | – | – | – | – | – | – | log reduction at 5000 µM (Staphylococcus aureus [1]): 0; Average Viability CFU/ml 60 min (Staphylococcus aureus [1]; [13]): 21100000 CFU/ml; Average Viability CFU/ml 60 min (Staphylococcus aureus [2]; [14]): 0 CFU/ml; Log Reduction 60 min (Staphylococcus aureus [2]; [14]): 7.4 |
| NCC(=O)O [Glycine] | 0 | 25300000 CFU/ml | 7.2 | 6.8 | 7.3 | 6.9 | 6.0 | 0.0 | 7.0 | 0.0 | Average Viability CFU/ml 60 min (Staphylococcus aureus [2]; [15]): 0 CFU/ml; Log 10 (CFU + 1) Survivors 60 min (Staphylococcus aureus [2]; [15]): 0.0; Log Reduction 60 min (Staphylococcus aureus [2]; [15]): 7.4; Average Viability CFU/ml 50 min (Staphylococcus aureus [2]; [10]): 9100 CFU/ml; Log Reduction 50 min (Staphylococcus aureus [2]; [10]): 3.4; Average Viability CFU/ml 50 min (Staphylococcus aureus [2]; [16]): 10050 CFU/ml; Log Reduction 50 min (Staphylococcus aureus [2]; [16]): 3.4; Average Viability CFU/ml 50 min (Staphylococcus aureus [2]; [12]): 7050 CFU/ml; Log Reduction 50 min (Staphylococcus aureus [2]; [12]): 3.5; CFU survivors, amino acid acting separately (Staphylococcus aureus [2]; standard conditions of Example 5 (2.5 μmol/mL; MPO 4.7 U/mL; GO 4.2 U/mL)): 9300 CFU |
| O=CC(=O)O [Glyoxylic acid] | 0.1 | 22200000 CFU/ml | – | – | – | – | – | – | – | – | Average Viability CFU/ml 60 min (Staphylococcus aureus [2]; [9]): 610000 CFU/ml; Log Reduction 60 min (Staphylococcus aureus [2]; [9]): 1.6 |
| O=C(O)CNC(=O)c1ccccc1 [Hippuric acid] | 0 | 19700000 CFU/ml | 7.3 | 5.9 | 6.7 | 5.8 | 7.3 | 5.9 | 6.8 | 5.0 | Average Viability CFU/ml 60 min (Staphylococcus aureus [2]; [8]): 865000 CFU/ml; Log 10 (CFU + 1) Survivors 60 min (Staphylococcus aureus [2]; [8]): 5.9; Log Reduction 60 min (Staphylococcus aureus [2]; [8]): 1.4 |
